Assay results taken from article PMC11539907, “Cytotoxicity of norstictic acid derivatives, a depsidone from Ramalina anceps Nyl” (Turkish Journal of Chemistry, 2024).
“Also recorded” adds a separate entry of the source. Read-outs that look alike come from different tables or passages of the source.

Assays:
[1] = tested on: HT-29 (colon carcinoma) cells; experiment: sulforhodamine B (SRB) cytotoxicity assay, HT-29; format: cell-based; conditions: for selectivity index (SI): GI50 on 3T3 cells divided by GI50 on HT-29; for GI50: Homo sapiens, HT-29 cells, SRB assay, read-out: growth inhibition (GI50)
Description: (§1) MCF7 (ATCC HTB-22, breast adenocarcinoma), 786-0 (ATCC CRL-1932, renal cell adenocarcinoma), PC-03 (ATCC CRL-1435, prostatic adenocarcinoma), HT-29 (ATCCHTB-38, colorectal adenocarcinoma), and HEP2 (ATCC CCL-23, laryngeal carcinoma) cells donated by Dr. João Ernesto de Carvalho (CPQBA – UNICAMP), and NIH/3T3 cells (ATCC CRL-1658, mouse embryonic fibroblast), purchased from the Rio de Janeiro Cell Bank, were used for the evaluation of cytotoxic activity. Cell maintenance and treatment were performed as described by Freshney. The sulforhodamine B (SRB) assay was carried out according to Brandão et al. and Bogo et al..
(§2) The selectivity index (SI) measures a compound’s ability to target a neoplastic cell line rather than a normal cell line, indicating its potential for use in clinical trials. In the present study, the SI of each substance was calculated as the quotient of its GI50 value for normal NIH/3T3 cells divided by the GI50 value for a neoplastic cell line. SI values greater than 3.0 were considered significant.

[2] = tested on: UACC-62 (human melanoma) cells; conditions: 3T3 vs UACC-62; ref Brandão et al. (2013); cited from earlier work
[3] = tested on: PC-03 (prostate carcinoma) cells; experiment: sulforhodamine B (SRB) cytotoxicity assay, PC-03; format: cell-based; conditions: for selectivity index (SI): GI50 on 3T3 cells divided by GI50 on PC-03; for GI50: PC-03 cells, SRB assay, read-out: growth inhibition (GI50)
Description: as §1, §2

[4] = tested on: MCF7 (breast carcinoma) cells; experiment: sulforhodamine B (SRB) cytotoxicity assay, MCF7; format: cell-based; conditions: for selectivity index (SI): GI50 on 3T3 cells divided by GI50 on MCF7; for GI50: Homo sapiens, MCF7 cells, SRB assay, read-out: growth inhibition (GI50)
Description: as §1, §2

[5] = tested on: NIH/3T3 (mouse embryonic fibroblast) cells; experiment: sulforhodamine B (SRB) cytotoxicity assay, NIH/3T3 normal cells; format: cell-based; conditions: for GI50: Mus musculus, NIH3T3, NIH/3T3 normal cells, SRB assay, read-out: growth inhibition (GI50); for effect on normal cells in words: 3T3 cells
Description: as §1, §2

[6] = tested on: HEP2 (laryngeal carcinoma) cells; experiment: sulforhodamine B (SRB) cytotoxicity assay, HEP2; format: cell-based; conditions: for selectivity index (SI): GI50 on 3T3 cells divided by GI50 on HEP2; for GI50: Homo sapiens, HEp-2, HEP2 cells, SRB assay, read-out: growth inhibition (GI50)
Description: as §1, §2

[7] = tested on: UACC-62 (human melanoma) cells; experiment: sulforhodamine B (SRB) cytotoxicity assay, UACC-62; format: cell-based; conditions: for selectivity index (SI): GI50 on 3T3 cells divided by GI50 on UACC-62; for GI50: Homo sapiens, UACC-62 cells, SRB assay, read-out: growth inhibition (GI50)
Description: [Worded in the source for another cell line; this cell line is reported under the same test.] as §1, §2

[8] = tested on: 786-0 (kidney carcinoma) cells; experiment: sulforhodamine B (SRB) cytotoxicity assay, 786-0; format: cell-based; conditions: for selectivity index (SI): GI50 on 3T3 cells divided by GI50 on 786-0; for GI50: Homo sapiens, 786-0 cells, SRB assay, read-out: growth inhibition (GI50)
Description: as §1, §2

[9] = tested on: B16-F10 (murine melanoma) cells; experiment: sulforhodamine B (SRB) cytotoxicity assay, B16-F10; format: cell-based; conditions: for selectivity index (SI): GI50 on 3T3 cells divided by GI50 on B16-F10; for GI50: Mus musculus, B16-F10 cells, SRB assay, read-out: growth inhibition (GI50)
Description: [Worded in the source for another cell line; this cell line is reported under the same test.] as §1, §2

[10] = tested on: tested tumor cells (786-0, MCF7, HT-29, PC-03, HEP2, B16-F10, UACC-62); experiment: sulforhodamine B (SRB) cytotoxicity assay, results stated over several cell lines; format: cell-based; conditions: for cytotoxic activity in words: cell lines as named in the quoted words; for selectivity index (SI), range over all tumor cells: all tested tumor cells vs NIH/3T3
Description: as §1, §2

[11] = all tested tumor cells, read-out: GI50, range over all tumor cells
[12] = listed as 8′-O-isopropyl-norstictic acid

For `COc1cccc2c1C(=O)c1c(O)c3c(c(O)c1C2=O)C[C@@](O)(C(=O)CO)C[C@@H]3O[C@H]1C[C@H](N)[C@H](O)[C@H](C)O1` [Doxorubicin, reference compound], the “selectivity index (SI)” value [1] is listed as 1.23, the GI50 [1] is listed as 0.43 µM and the “selectivity index (SI)” value [2] is listed as 1.2. For the same compound, the “selectivity index (SI)” value [3] was 16.0, the GI50 [3] was 0.034 µM and the “selectivity index (SI)” value [4] was 6.4. The GI50 [4] was 0.086 µM, the GI50 [5] was 0.55 µM and the “selectivity index (SI)” value [6] was 0.84. The GI50 [6] was 0.65 µM, the “selectivity index (SI)” value [7] was 4.5 and the GI50 [7] was 0.12 µM. For the same compound, the “selectivity index (SI)” value [8] was 1.23, the GI50 [8] was 0.43 µM and the “selectivity index (SI)” value [9] was 1.28. The GI50 [9] was 0.43 µM.
For `CCCOC1OC(=O)c2c(O)c(C)c3c(c21)Oc1c(C=O)c(O)cc(C)c1C(=O)O3` (stereo not shown) [compound 2, 8′-O-n-propyl-norstictic acid], the “selectivity index (SI)” value [1] was 0.13, the GI50 [1] was 470 µM and the “cytotoxic activity in words” value [10] was “did not show activity against the tested tumor cells; also recorded: comparatively low activity against the cancerous cell lines”. The “selectivity index (SI)” value [3] was 2.03, the “selectivity index (SI)” value ([3]; listed as n-propyl) was 33.8 and the GI50 ([3]; listed as n-propyl) was 1.28 µM. For the same compound, the GI50 [3] was 30 µM, the “selectivity index (SI)” value [4] was 0.15 and the GI50 [4] was 410 µM. The GI50 [5] was 63 µM, the “selectivity index (SI)” value [6] was 0.94 and the GI50 [6] was 70 µM. The “selectivity index (SI)” value [7] was 1.2, the GI50 [7] was 50 µM and the “selectivity index (SI)” value [8] was 0.43. It also gave a GI50 [8] of 140 µM, a melting point of 183 °C and a GI50 [9] of over 600 µM.
For `CCCCOC1OC(=O)c2c(O)c(C)c3c(c21)Oc1c(C=O)c(O)cc(C)c1C(=O)O3` (stereo not shown) [compound 3, 8′-O-n-butyl-norstictic acid], the “selectivity index (SI)” value [1] was 16.34, the GI50 [1] was 38.3 µM and the “selectivity index (SI), range over all tumor cells” value [10] was 13.88–98.11. The GI50 [10, 11] was 6.37 to 45 µM, the “selectivity index (SI)” value [3] was 98.11 and the GI50 [3] was 6.37 µM. For the same compound, the “selectivity index (SI)” value [4] was 47.15, the GI50 [4] was 13.3 µM and the “effect on normal cells in words” value [5] was “lowest effect on 3T3 cells”. For the same compound, the GI50 [5] was 625 µM, the “selectivity index (SI)” value [6] was 78.77 and the GI50 [6] was 7.94 µM. For the same compound, the “selectivity index (SI)” value [7] was 54.1, the GI50 [7] was 11.5 µM and the “selectivity index (SI)” value [8] was 22.21. The GI50 [8] was 28.2 µM, the melting point was 169 °C and the “selectivity index (SI)” value [9] was 13.88. For the same compound, the GI50 [9] was 45 µM.
For `CCCCCOC1OC(=O)c2c(O)c(C)c3c(c21)Oc1c(C=O)c(O)cc(C)c1C(=O)O3` (stereo not shown) [compound 4, 8′-O-n-pentyl-norstictic acid], the “selectivity index (SI)” value [1] was 1.50, the GI50 [1] was 38.2 µM and the “cytotoxic activity in words” value [10] was “low biological activity”. The “selectivity index (SI)” value [3] was 6.53, the GI50 [3] was 8.77 µM and the “selectivity index (SI)” value [4] was 3.69. For the same compound, the GI50 [4] was 15.5 µM, the GI50 [5] was 57.2 µM and the “selectivity index (SI)” value [6] was 1.19. The GI50 [6] was 48.2 µM, the “selectivity index (SI)” value [7] was 1.51 and the GI50 [7] was 37.8 µM. The “selectivity index (SI)” value [8] was 0.75, the GI50 [8] was 76.2 µM and the melting point was 175 °C. For the same compound, the “selectivity index (SI)” value [9] was 1.03 and the GI50 [9] was 55.4 µM.
For `CCCCCCOC1OC(=O)c2c(O)c(C)c3c(c21)Oc1c(C=O)c(O)cc(C)c1C(=O)O3` (stereo not shown) [compound 5, 8′-O-n-hexyl-norstictic acid], the “selectivity index (SI)” value [1] was 7.66, the GI50 [1] was 7.16 µM and the GI50 ([10]; MCF7, HT-29, PC-03, and HEP2 cells, read-out: GI50, range) was 5.96 to 9.53 µM. For the same compound, the “cytotoxic activity in words” value [10] was “showed activity against MCF7, HT-29, PC-03, and HEP2 cells”, the “selectivity index (SI)” value [3] was 7.60 and the GI50 [3] was 7.23 µM. For the same compound, the “selectivity index (SI)” value [4] was 5.76, the GI50 [4] was 9.53 µM and the GI50 [5] was 54.9 µM. The “selectivity index (SI)” value [6] was 9.2, the GI50 [6] was 5.96 µM and the “selectivity index (SI)” value [7] was 1.06. The GI50 [7] was 51.6 µM, the “selectivity index (SI)” value [8] was 1.75 and the GI50 [8] was 31.4 µM. For the same compound, the melting point was 178 °C, the “selectivity index (SI)” value [9] was 0.97 and the GI50 [9] was 56.3 µM.
In the case of `Cc1cc(O)c(C=O)c2c1C(=O)Oc1c(C)c(O)c3c(c1O2)C(OC(C)C)OC3=O` (stereo not shown) [compound 6, 8′-O-isopropyl-norstictic acid], the “selectivity index (SI)” value [1] is reported as 0.86, the GI50 [1] is reported as 50.2 µM and the “selectivity index (SI), range” value ([10]; PC-03, HEP2, B16-F10, and UACC-62 cells vs NIH/3T3) is reported as 4.48 to 33.8. For the same compound, the GI50 ([10]; PC-03, HEP2, B16-F10, and UACC-62 cells, read-out: GI50, range) was 1.28 to 9.65 µM, the “cytotoxic activity in words” value [10] was “active against PC-03, HEP2, B16-F10, and UACC-62 cells” and the “selectivity index (SI)” value [3] was 33.8. For the same compound, the GI50 [3] was 1.28 µM, the “selectivity index (SI)” value [4] was 0.73 and the GI50 [4] was 59.3 µM. The GI50 [5] was 43.2 µM, the “selectivity index (SI)” value [6] was 5.56 and the “selectivity index (SI)” value [6, 12] was 5.5. For the same compound, the GI50 [6] was 7.78 µM, the “selectivity index (SI)” value [7] was 7.0 and the GI50 [7] was 6.2 µM. For the same compound, the “selectivity index (SI)” value [8] was 0.86, the GI50 [8] was 50.1 µM and the melting point was 185 °C. For the same compound, the “selectivity index (SI)” value [9] was 4.48, the “selectivity index (SI)” value [9, 12] was 4.5 and the GI50 [9] was 9.65 µM.
With `CCC(C)OC1OC(=O)c2c(O)c(C)c3c(c21)Oc1c(C=O)c(O)cc(C)c1C(=O)O3` (stereo not shown) [compound 7, 8′-O-sec-butyl-norstictic acid] the “selectivity index (SI)” value [1] was 48.3, the GI50 [1] was 12.3 µM and the “selectivity index (SI), range over all tumor cells” value [10] was 11.30–87.40. The GI50 [10, 11] was 6.8 to 52.4 µM, the “selectivity index (SI)” value [3] was 11.30 and the GI50 [3] was 52.4 µM. The “selectivity index (SI)” value [4] was 87.4, the GI50 [4] was 6.8 µM and the “effect on normal cells in words” value [5] was “lowest effect on 3T3 cells”. The GI50 [5] was 594 µM, the “selectivity index (SI)” value [6] was 78.0 and the GI50 [6] was 7.6 µM. The “selectivity index (SI)” value [7] was 20.2, the GI50 [7] was 29.4 µM and the “selectivity index (SI)” value [8] was 27.78. The GI50 [8] was 21.4 µM, the melting point was 170 °C and the “selectivity index (SI)” value [9] was 64.4. It also gave a GI50 [9] of 9.2 µM.
With `Cc1cc(O)c(C=O)c2c1C(=O)Oc1c(C)c(O)c3c(c1O2)C(OC(C)(C)C)OC3=O` (stereo not shown) [compound 8, 8′-O-tert-butyl-norstictic acid] the “selectivity index (SI)” value [1] was 0.28, the GI50 [1] was 139 µM and the “cytotoxic activity in words” value [10] was “active only against PC-03 cells; also recorded: low biological activity”. The “selectivity index (SI)” value [3] was 5.0, the GI50 [3] was 7.6 µM and the “selectivity index (SI)” value [4] was 0.6. The GI50 [4] was 64.2 µM, the GI50 [5] was 38.5 µM and the “selectivity index (SI)” value [6] was 0.66. The GI50 [6] was 57.8 µM, the “selectivity index (SI)” value [7] was 0.57 and the GI50 [7] was 67.1 µM. The “selectivity index (SI)” value [8] was 0.6, the GI50 [8] was 63.3 µM and the melting point was 196 °C. The “selectivity index (SI)” value [9] was 0.42 and the GI50 [9] was 90.3 µM.
